# Source: article PMC7725003, “Systematically Studying the Optimal Amino Acid Distribution Patterns of the Amphiphilic Structure by Using the Ultrashort Amphiphiles” (Frontiers in Microbiology, 2020)
# Where no end group is shown, it is not given here.
# Columns and labels:
# Gram-negative bacteria [1] = settings: geometric mean of MBCs, 9 Gram-negative strains (Table 2)
# Gram-negative bacteria [2] = settings: for GM MIC: geometric mean of MICs, 9 Gram-negative strains (Table 2); for TI, Gram-negative bacteria: therapeutic index TI = MHC/GM MIC
# Summary of the method: (§1)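 MIC is the lowest peptide concentration giving 95% growth inhibition, read at 492 nm after 24 h incubation at 37°C. Peptides were serially diluted in 0.2% BSA and added to mid-logarithmic cells at 0.5–1 × 10^6 CFU mL^–1 in MHB, following a modified NCCLS method, with more than 3 repeats.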
# Gram-positive bacteria [3] = settings: for GM MIC: geometric mean of MICs, 7 Gram-positive strains (Table 2); for TI, Gram-positive bacteria: therapeutic index TI = MHC/GM MIC
# Summary of the method: as §1
# MRSA 43300 = type: cell-based, methicillin-resistant S. aureus; settings: 43300, 24 h
# Summary of the method: (§2)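 Bacteria were grown to mid-log phase and diluted in MHB to 0.5–1 × 10^6 CFU mL^–1. Serial peptide dilutions in 0.2% BSA were added at equal volume and plates incubated 24 h at 37°C. Growth inhibition of 95% at 492 nm defined the MIC.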
# [4] = tested on: Listeria monocytogenes CGMCC 1.1075; type: cell-based; settings: CGMCC 1.1075, 24 h
# Summary of the method: as §2
# P. aeruginosa 27853 = type: cell-based, Pseudomonas aeruginosa; settings: 27853, 24 h
# Summary of the method: as §2
# [5] = tested on: all of the tested bacterial strains; assay: Geometric mean of MICs, all tested bacterial strains; type: cell-based; settings: for GM, All: geometric mean of MICs across all tested strains
# Summary of the method: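 Per strain, MIC came from absorbance at 492 nm after 24 h at 37°C (≥95% inhibition), using mid-log inoculum of 0.5–1 × 10^6 CFU mL^–1 in MHB and peptide diluted in 0.2% BSA. MBC (>99.9% killed) came from overnight agar plating, and values are geometric means across strains.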
# S. typhimurium 14028 = type: cell-based, Salmonella typhimurium; settings: 14028, 24 h
# Summary of the method: as §2
# S. typhimurium 7731 = type: cell-based, Salmonella typhimurium; settings: 7731, 24 h
# Summary of the method: as §2
# S. pullorum 7913 = type: cell-based, Salmonella pullorum; settings: 7913, 24 h
# Summary of the method: as §2
# S. epidermidis 12228 = type: cell-based, Staphylococcus epidermidis; settings: 12228, 24 h
# Summary of the method: as §2
# S. aureus 29213 [6] = assay: Salt sensitivity assay (MIC); type: cell-based, Staphylococcus aureus; settings: for MIC, FeCl3: 4 μM FeCl3; for MIC, NH4Cl: 6 μM NH4Cl; for MIC, ZnCl2: 8 μM ZnCl2; for MIC, MgCl2: 1 mM MgCl2; for MIC, CaCl2: 2 mM CaCl2; for MIC, KCl: 4.5 mM KCl; for MIC, NaCl: 150 mM NaCl
# Summary of the method: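 Physiological salts (150 mM NaCl, 4.5 mM KCl, 6 μM NH4Cl, 8 μM ZnCl2, 1 mM MgCl2, 2mM CaCl2, 4 μM FeCl3) added to MHB. Bacteria at 0.5–1 × 10^6 CFU/mL exposed to serially diluted peptides for 24 h at 37°C. MIC read as lowest peptide concentration giving 95% growth inhibition by absorbance at 492 nm.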
# S. aureus 29213 [7] = type: cell-based, Staphylococcus aureus; settings: 29213, 24 h
# Summary of the method: as §2
# S. aureus 25923 = type: cell-based, Staphylococcus aureus; settings: 25923, 24 h
# Summary of the method: as §2
# E. coli K99 = settings: for MIC: MHB, 24 h 37°C, 95% growth inhibition
# Method: (§3) The antimicrobial activities of the peptides were measured using a method adapted from the National Committee for Clinical Laboratory Standards (NCCLS) with some modifications ([Chou et al., 2016]). The specific procedure for these assays has been previously described. In brief, the bacterial cells were grown to a mid-logarithmic phase and diluted in MHB to an ultimate concentration of 0.5–1 × 10^6 CFU mL^–1. Subsequently, the peptides were consecutively diluted in a 0.2% BSA solution and then added to a bacterial solution in a 96-well plate at identical volumes. After incubation for 24 h at 37°C, the MICs were determined to be the lowest peptide concentration that inhibited 95% of the bacterial growth by monitoring the absorbance at 492 nm using a microplate reader. Subsequently, 50 μL of each incubation mixture was further transferred to agar plates and incubated overnight. […] Every assay was reproduced more than 3 times.
# E. coli K88 = settings: for MIC: MHB, 24 h 37°C, 95% growth inhibition
# Method: as §3
# E. faecalis 29212 = type: cell-based, Enterococcus faecalis; settings: 29212, 24 h
# Summary of the method: as §2
# B. subtilis 63501 = type: cell-based, Bacillus subtilis; settings: 63501, 24 h
# Summary of the method: as §2
# Gram-positive bacteria [8] = settings: geometric mean of MBCs, 7 Gram-positive strains (Table 2)
# E. coli O78 = type: cell-based, Escherichia coli; settings: O78, 24 h
# Summary of the method: as §2
# E. coli UB1005 = type: cell-based, Escherichia coli; settings: UB1005, 24 h
# Summary of the method: as §2
# E. coli 25922 = type: cell-based, Escherichia coli; settings: 25922, 24 h
# Summary of the method: as §2
# E. coli ATCC 25922 = assay: Salt sensitivity assay (MIC); type: cell-based, Escherichia coli; settings: for MIC, FeCl3: 4 μM FeCl3; for MIC, NH4Cl: 6 μM NH4Cl; for MIC, ZnCl2: 8 μM ZnCl2; for MIC, MgCl2: 1 mM MgCl2; for MIC, CaCl2: 2 mM CaCl2; for MIC, KCl: 4.5 mM KCl; for MIC, NaCl: 150 mM NaCl; for MIC, Control: no added salt, three independent assays
# Summary of the method: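 Peptides diluted serially in 0.2% BSA solution were combined at identical volumes with mid-logarithmic E. coli ATCC 25922 in MHB (0.5–1 × 10^6 CFU mL^–1) in 96-well plates, with or without a physiological salt. Plates were incubated for 24 h at 37°C. MIC was the lowest concentration inhibiting 95% of growth, measured as absorbance at 492 nm on a microplate reader.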
# [9] = value in brackets, >99.9% of cells killed
substance,measurement,setting,value
LLLRRRRLL-NH2 [L4],GM MBC,Gram-negative bacteria [1],128 µM
same,"GM, Gram-negative bacteria",Gram-negative bacteria [2]; geometric mean of MICs (Table 3),128.00 µM
same,GM MIC,Gram-negative bacteria [2],128 µM
same,"TI, Gram-negative bacteria",Gram-negative bacteria [2],2.00
same,GM MIC,Gram-positive bacteria [3],86.14 µM
same,"TI, Gram-positive bacteria",Gram-positive bacteria [3],2.97
same,MIC,MRSA 43300,>64 µM
same,MIC,[4],>64 µM
same,MIC,P. aeruginosa 27853,> 64 µM
same,"GM, All",[5],107.63 µM
same,"TI, All",[5]; therapeutic index TI = MHC/GM MIC,2.38
same,MIC,S. typhimurium 14028,> 64 µM
same,MIC,S. typhimurium 7731,> 64 µM
same,MIC,S. pullorum 7913,>64 µM
same,MIC,S. epidermidis 12228,> 64 µM
same,"MIC, FeCl3",S. aureus 29213 [6],> 64 µM
same,"MIC, NH4Cl",S. aureus 29213 [6],> 64 µM
same,"MIC, ZnCl2",S. aureus 29213 [6],> 64 µM
same,"MIC, MgCl2",S. aureus 29213 [6],> 64 µM
same,"MIC, CaCl2",S. aureus 29213 [6],> 64 µM
same,"MIC, KCl",S. aureus 29213 [6],> 64 µM
same,"MIC, NaCl",S. aureus 29213 [6],> 64 µM
same,"MIC, Control","S. aureus 29213 [6]; no added salt, three independent assays",> 64 µM
same,MIC,S. aureus 29213 [7],>64 µM
same,MIC,S. aureus 25923,> 64 µM
same,MIC,E. coli K99,> 64 µM
same,MIC,E. coli K88,>64 µM
same,MIC,E. faecalis 29212,> 64 µM
same,MBC,B. subtilis 63501,16 µM
same,MIC,B. subtilis 63501,8 µM
same,GM MBC,Gram-positive bacteria [8],95.10 µM
same,MIC,E. coli O78,>64 µM
same,MIC,E. coli UB1005,>64 µM
same,MIC,E. coli 25922,> 64 µM
same,"MIC, FeCl3",E. coli ATCC 25922,> 64 µM
same,"MIC, NH4Cl",E. coli ATCC 25922,> 64 µM
same,"MIC, ZnCl2",E. coli ATCC 25922,> 64 µM
same,"MIC, MgCl2",E. coli ATCC 25922,> 64 µM
same,"MIC, CaCl2",E. coli ATCC 25922,> 64 µM
same,"MIC, KCl",E. coli ATCC 25922,> 64 µM
same,"MIC, NaCl",E. coli ATCC 25922,> 64 µM
same,"MIC, Control",E. coli ATCC 25922,> 64 µM
LLRLLRRRL-NH2 [L1],GM MBC,Gram-negative bacteria [1],25.40 µM
same,GM MIC,Gram-negative bacteria [2],13.72 µM
same,"TI, Gram-negative bacteria",Gram-negative bacteria [2],18.66
same,GM MIC,Gram-positive bacteria [3],21.53 µM
same,"TI, Gram-positive bacteria",Gram-positive bacteria [3],2.97
same,MBC,MRSA 43300,32 µM
same,MIC,MRSA 43300,16 µM
same,MIC,[4],> 64 µM
same,MIC,P. aeruginosa 27853,> 64 µM
same,"GM, All",[5],16.71 µM
same,MBC,S. typhimurium 14028,32 µM
same,MIC,S. typhimurium 14028,16 µM
same,MBC,S. typhimurium 7731,32 µM
same,MIC,S. typhimurium 7731,16 µM
same,MBC,S. pullorum 7913,16 µM
same,MIC,S. pullorum 7913,8 µM
same,MBC,S. epidermidis 12228,32 µM
same,MIC,S. epidermidis 12228,16 µM
same,"MIC, FeCl3",S. aureus 29213 [6],> 64 µM
same,"MIC, NH4Cl",S. aureus 29213 [6],64 µM
same,"MIC, ZnCl2",S. aureus 29213 [6],64 µM
same,"MIC, MgCl2",S. aureus 29213 [6],64 µM
same,"MIC, CaCl2",S. aureus 29213 [6],> 64 µM
same,"MIC, KCl",S. aureus 29213 [6],64 µM
same,"MIC, NaCl",S. aureus 29213 [6],> 64 µM
same,MBC,S. aureus 29213 [7],32 µM
same,MIC,S. aureus 29213 [7],16 µM
same,MBC,S. aureus 25923,64 µM
same,MIC,S. aureus 25923,32 µM
same,MIC,E. coli K99,8 µM
same,MBC,E. coli K99; [9],16 µM
same,MIC,E. coli K88,8 µM
same,MBC,E. coli K88; [9],16 µM
same,MBC,E. faecalis 29212,128 µM
same,MIC,E. faecalis 29212,64 µM
same,MBC,B. subtilis 63501,4 µM
same,MIC,B. subtilis 63501,2 µM
same,GM MBC,Gram-positive bacteria [8],39.01 µM
same,MBC,E. coli O78,16 µM
same,MIC,E. coli O78,8 µM
same,MBC,E. coli UB1005,32 µM
same,MIC,E. coli UB1005,16 µM
same,MBC,E. coli 25922,16 µM
same,MIC,E. coli 25922,8 µM
same,"MIC, FeCl3",E. coli ATCC 25922,4 µM
same,"MIC, NH4Cl",E. coli ATCC 25922,4 µM
same,"MIC, ZnCl2",E. coli ATCC 25922,8 µM
same,"MIC, MgCl2",E. coli ATCC 25922,8 µM
same,"MIC, CaCl2",E. coli ATCC 25922,32 µM
same,"MIC, KCl",E. coli ATCC 25922,16 µM
same,"MIC, NaCl",E. coli ATCC 25922,64 µM
same,"MIC, Control",E. coli ATCC 25922,8 µM
